Data taken from paper PMC11864979, “First-in-class ultralong-target-residence-time p38α inhibitors as a mitosis-targeted therapy for colorectal cancer” (Nature Cancer, 2025).
Several values for one entry are separate records, joined by “and”; a condition that tells them apart may be missing. Equal values may be shown once. Read-outs that look alike come from different tables or passages of the source.

Tests used:
KAP organoids = assay: cell viability in KAP organoids (CellTiter-Glo); assay type: cell-based, mouse; conditions: for induction of cell death in KAP organoids (in words): viability assay
Procedure: For in vitro treatment studies, organoids were mechanically dissociated and digested using TrypLE supplemented with 100 µg ml^−1 DNaseI and 10.5 µM Y-27632 dihydrochloride (Invitrogen) at 37 °C. A total of 1,000–2,000 single cells were plated per well in white 96-well plates (Greiner) in culture medium containing 10% GFR Matrigel or Cultrex BME. The treatment with doxycycline (5 µg ml^−1), pharmacological inhibitors or corresponding volumes of DMSO was started 24 h after plating. Doxycycline was obtained from Sigma-Aldrich. […] Cell viability was measured by means of CellTiter-Glo 3D or CellTiter-Glo 2.0 reagent (Promega) according to the manufacturers’ instructions and the Infinite M Plex reader (Tecan, i-control version 3.9.1 software). Results were normalized to vehicle (DMSO) or to shNC. For cell-doubling assays, the cell number was quantified at the corresponding time points using Guava EasyCyte flow cytometer (Luminex, CytoSoft v5.2 software).

[1] = cell viability after 2015, Navitoclax or 2015 + Navitoclax (Fig. 5f); assay type: cell-based; parameters: concentration or dose not given beside the values; conditions: replicates
subcutaneous KAP CRCs = assay: treatment of subcutaneous KAP tumors in wild-type mice; assay type: in vivo, mouse; conditions: 6 d of treatment; single tumors; Fig. 5i
Procedure: Subcutaneous injection, splenic seeding or cecum injection of organoids was performed in 8–10-week-old C57BL/6 N/Crl, Rag2^−/− (B6.Cg-Rag2^tm1.1Cgn/J), or CB17 Scid beige (CB17.Cg-Prkdc^scidLyst^bg-J/Crl) mice, obtained from Charles River. The organoids were dissociated into single cells, washed with PBS and injected in a 1:1 mixture of PBS and Matrigel. For murine organoids, 1 × 10^5 cells were injected into the left and right flanks or the spleen capsule and 2 × 10^6 cells were injected into the cecum wall. For human organoids, 4 × 10^5 cells were injected into the flanks of CB17 Scid beige mice. For splenic seeding and cecum injection, mice were anaesthetized using ketamine (100 mg kg^−1, intraperitoneally) and xylazin (10 mg/kg, intraperitoneally) in NaCl and a small laparotomy below the thorax was performed.
No mice were excluded during treatment studies.

p38α = p38α (Homo sapiens, UniProt Q16539); assay: p38α inhibition on isolated enzyme (ELISA, ATF2 substrate); assay type: biochemical; conditions: Fig. 2d; replicates
Procedure: For evaluating p38α inhibition on isolated enzyme, an ELISA assay was performed[57]. […] Compounds were dissolved in DMSO (10 mM) and diluted (0.01–10 µM) in a kinase buffer containing 12 ng per 50 µl p38α protein (provided by J. Schultz, University of Tübingen), 50 mM Tris pH 7.5, 10 mM MgCl2, 10 mM β-glycerophosphate, 100 µg ml^−1 BSA, 1 mM dithiothreitol, 0.1 mM Na3VO4 and 100 µM ATP. Then, 50 µl of each sample was pipetted into the corresponding wells and incubated for 1 h at 37 °C. […] Finally, 50 µl of TMB substrate (BD Bioscience) was added to the wells. After 5 min, the reaction was stopped by adding 25 µl of 1 N HCl and the samples were measured photometrically at 450 nm with an ELISA reader (Molecular Devices, FilterMax F5) using SOFTmax PRO software (version 6.5.1).

[2] = Mus musculus, 24 h, read-out: Cell viability (%), Fig. 1d, replicates

Chain of p38α (Q16539 whole entry): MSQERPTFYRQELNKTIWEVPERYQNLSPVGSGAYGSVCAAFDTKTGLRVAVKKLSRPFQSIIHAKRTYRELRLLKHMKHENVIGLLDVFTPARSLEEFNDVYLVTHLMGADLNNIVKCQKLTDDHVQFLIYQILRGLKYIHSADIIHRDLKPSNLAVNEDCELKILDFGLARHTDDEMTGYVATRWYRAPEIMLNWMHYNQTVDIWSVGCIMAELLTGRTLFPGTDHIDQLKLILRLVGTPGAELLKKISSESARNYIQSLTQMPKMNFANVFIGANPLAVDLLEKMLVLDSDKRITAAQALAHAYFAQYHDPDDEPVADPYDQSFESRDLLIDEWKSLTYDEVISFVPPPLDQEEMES

With `CC1(C)CCC(c2ccc(Cl)cc2)=C(CN2CCN(c3ccc(C(=O)NS(=O)(=O)c4ccc(N[C@H](CCN5CCOCC5)CSc5ccccc5)c(S(=O)(=O)C(F)(F)F)c4)cc3)CC2)C1` [navitoclax, reference compound] the “induction of cell death in KAP organoids (in words)” value (“induction of cell death” below) (KAP organoids) was “no therapeutic response”, the Cell viability [1] was 100.49% and 78.37% and 85.69% and the Tumor volume (subcutaneous KAP CRCs) was 87.5 mm³ and 126.0 mm³ and 144.0 mm³ and 112.5 mm³ and 100.0 mm³.

In the case of `CNC(=O)c1ccc(C)c(-n2c(C)cc(OCc3ccc(F)cc3F)c(Br)c2=O)c1` [PH-797804, reference compound], the “induction of cell death” value (KAP organoids) is reported as “only a very weak induction of cell death”.

With `CNC(=O)c1ccc(C)c(-n2c(C)cc(OCc3ccc(F)cc3F)c(Br)c2=O)c1` [PH797804] the viability at 1 µM (KAP organoids; Mus musculus, 24 h, read-out: Cell viability (%), Fig. 1d, 1 µM, replicates) was 92.1%, the viability at 10 µM (KAP organoids; [2]) was 84.1% and the viability at 1 µM (KAP organoids; Mus musculus, read-out: Cell viability (% of DMSO), drug screen in KAP organoids, 1 µM concentration, n = 3, mean) was 86.2%.

With `Cc1ccc(-n2nc(C(C)(C)C)cc2NC(=O)Nc2ccc(OCCN3CCOCC3)c3ccccc23)cc1` [BIRB-796, reference compound] the “induction of cell death” value (KAP organoids) was “failed to inhibit p38α downstream signaling and induce cell death”.

For `CC(C)(C)Cn1c(N)nc2ccc(-c3[nH]c(C(C)(C)C)nc3-c3ccc(F)cc3)nc21` [LY2228820, ralimetinib, reference compound], the viability at 5 µM (KAP organoids; Mus musculus, 24 h, read-out: Cell viability (%), Fig. 1d, 5 µM, replicates) was 93.3%, the viability at 10 µM (KAP organoids; [2]) was 77.8% and the “induction of cell death” value (KAP organoids) was “only a very weak induction of cell death”.

In the case of `CC(C)(C)Cn1c(N)nc2ccc(-c3[nH]c(C(C)(C)C)nc3-c3ccc(F)cc3)nc21` [LY222820], the IC50 (p38α) is reported as 7.81 nM and 4.31 nM and 10.9 nM.
